Test results taken from US20220023281A1, “HETEROCYCLIC SPIRO-COMPOUNDS AS AM2 RECEPTOR INHIBITORS” (THE UNIVERSITY OF SHEFFIELD, priority 2018, published 2022).

Target: T1, AM2 receptor-expressing cells (1321N1 cells transfected with CALCRL+RAMP3) (Homo sapiens, UniProt O60896+Q16602)
T1 construct: host or cells: 1321N1 cells
Experiment: AM2 receptor inhibition, LANCE cAMP agonist-antagonist competition assay (AM2 D2 protocol)
Format: cell-based
Conditions: inhibition of AM induced cAMP in 1321N1 cells expressing CALCRL+RAMP3; read-out: AM2 D2 protocol: pIC50 (converted)
Procedure: Compounds were assessed for their ability to inhibit ligand-induced elevations of cAMP, using the Perkin Elmer LANCE cAMP assay using commercially-available cells expressing a specific receptor of interest using the following general procedure:
Compounds were prepared in dimethyl sulfoxide (DMSO—99.9% pure) (Sigma Aldrich, Cat #: D4540) added to powder stocks to produce a 20 mM solution (100% DMSO) that was sonicated at 37° C. for 10 minutes to fully dissolve the compounds. The 20 mM stocks were diluted further in DMSO to produce a 2 mM solution that was sonicated at 37° C. for 10 minutes. 2 mM stocks were dissolved in assay/stimulation buffer to produce a 400 μM solution that was sonicated at 37° C. for 10 minutes for all cAMP assays. All stocks were stored at −20° C. Then serial dilution (Dilution factor: 10) was performed to achieve the desire experimental concentrations.
Competition assays were performed according to the manufactures instructions using LANCE® TR-FRET cAMP assay kit (Perkin Elmer, Cat #: AD0264). Serial dilutions (3 μl/well) of the molecules were plated in a 384-well OptiPlate (Perkin Elmer, Cat #: 6007299) in duplicates. Appropriate controls (100% stimulation: Forskolin and 0% stimulation: Vehicle control) (6 μl/well) were included in each plate for data normalization. Following the compound addition, 6 μl of G-protein coupled receptor overexpressing cells/Alexa Fluor antibody solution (1:100 dilution) was added in each well at a desired density of 2500 cells/well. The overexpressing cell lines were purchased from DiscoveRx, Birmingham, UK. After spinning the plate at 1000 rpm for 1 minute and vortexing briefly, the cells were pre-incubated with the compounds for 30 minutes at room temperature (covered). Then 3 μl of the equivalent peptide ligand (EC50 dose) was added to all the wells except vehicle and forskolin controls. The plate were then spun down at 1000 rpm for 1 minute and once finished they were vortexed briefly and covered. Cells were stimulated in the presence of the ligands for 15 minutes at room temperature. After stimulation 12 μl of detection mix (Europium-Chelate streptavidin/biotinylated cAMP tracer solution) was added to all wells and incubated for 60 minutes at room temperature. The plate was then read on the Enspire multimode Plate reader (Perkin Elmer), at; 320/340 nm excitation and 615/665 nm emission was recorded.
Assay/Stimulation Buffer (30 mL)—pH 7.4 • 28 mL Hank's Balanced salt solution (+MgCl2, +CaCl2))—(Thermo Fisher Cat #:14170112) • 150 μl HEPES (1M)—(Thermo Fisher Cat #:15630080) • 400 μl Stabilizer (DTPA) Purified BSA (7.5%)—(Perkin Elmer, Cat #: CR84-100) • 60 μl IBMX (250 mM)—(Sigma Aldrich, Cat #: 15879)
The ability of a compound to inhibit the AM induced cAMP activation in AM2 receptor-expressing cells (1321N1 cells transfected with CALCRL+RAMP3, sourced from DiscoverX catalogue number 95-0169C6) was assessed using the protocol above.

T1 sequence (Q16602 23-461): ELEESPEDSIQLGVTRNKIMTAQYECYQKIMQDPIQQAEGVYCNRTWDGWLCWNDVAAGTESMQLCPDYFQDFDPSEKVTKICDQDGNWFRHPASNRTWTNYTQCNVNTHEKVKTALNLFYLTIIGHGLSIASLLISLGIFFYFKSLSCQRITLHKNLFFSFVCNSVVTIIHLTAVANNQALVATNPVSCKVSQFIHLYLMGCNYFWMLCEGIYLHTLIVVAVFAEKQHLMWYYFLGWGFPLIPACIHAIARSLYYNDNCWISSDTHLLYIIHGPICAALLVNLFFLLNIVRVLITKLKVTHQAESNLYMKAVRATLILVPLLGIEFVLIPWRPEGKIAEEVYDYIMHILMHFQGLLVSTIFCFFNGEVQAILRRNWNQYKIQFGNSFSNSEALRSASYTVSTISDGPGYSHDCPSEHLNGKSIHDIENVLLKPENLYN
T1 sequence (O60896 24-148): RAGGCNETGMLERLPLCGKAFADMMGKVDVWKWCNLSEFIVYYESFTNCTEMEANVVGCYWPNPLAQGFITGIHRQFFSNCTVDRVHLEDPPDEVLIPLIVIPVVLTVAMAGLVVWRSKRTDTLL

Compound | IC50
CC1(C(=O)N(CC(=O)Nc2ccc3c(c2)C[C@@]2(C3)C(=O)Nc3ncccc32)[C@H]2CCCNC2)CCN(C(=O)c2ccccn2)CC1 [Example 17, 4-Methyl-N-(2-oxo-2-(((R)-2′-oxo-1,1′,2′,3-tetrahydrospiro[indene-2,3′-pyrrolo[2,3-b]pyridin]-5-yl)amino)ethyl)-1-picolinoyl-N—((S)-piperidin-3-yl)piperidine-4-carboxamide] | 18.6 nM
CC1(C(=O)N(CC(=O)Nc2ccc3c(c2)C[C@@]2(C3)C(=O)Nc3ncccc32)[C@H]2CCCNC2)CCN(C(=O)CN2CCNCC2)CC1 [Example 18, 4-Methyl-N-(2-oxo-2-(((R)-2′-oxo-1,1′,2′,3-tetrahydrospiro[indene-2,3′-pyrrolo[2,3-b]pyridin]-5-yl)amino)ethyl)-1-(2-(piperazin-1-yl)acetyl)-N—((S)-piperidin-3-yl)piperidine-4-carboxamide] | 67.6 nM
CCC1(C(=O)N(CC(=O)Nc2ccc3c(c2)C[C@@]2(C3)C(=O)Nc3ncccc32)[C@H]2CCCNC2)CCN(C(C)=O)CC1 [Example 19, 1-Acetyl-4-ethyl-N-(2-oxo-2-(((R)-2′-oxo-1,1′,2′,3-tetrahydrospiro[indene-2,3′-pyrrolo[2,3-b]pyridin]-5-yl)amino)ethyl)-N—((S)-piperidin-3-yl)piperidine-4-carboxamide] | 14.1 nM
CNC(=O)N1CCC(C)(C(=O)N(CC(=O)Nc2ccc3c(c2)C[C@@]2(C3)C(=O)Nc3ncccc32)[C@H]2CCCNC2)CC1 [Example 20, N1,4-Dimethyl-N4-[2-oxo-2-[[(3R)-2-oxospiro[1H-pyrrolo[2,3-b]pyridine-3,2′-indane]-5′-yl]amino]ethyl]-N4-[(3S)-3-piperidyl]piperidine-1,4-dicarboxamide] | 56.2 nM
CC1(C(=O)N(CC(=O)Nc2ccc3c(c2)C[C@@]2(C3)C(=O)Nc3ncccc32)[C@H]2CCCNC2)CCN(C(=O)N2CCCC2)CC1 [Example 21, 4-Methyl-N-(2-oxo-2-(((R)-2′-oxo-1,1′,2′,3-tetrahydrospiro[indene-2,3′-pyrrolo[2,3-b]pyridin]-5-yl)amino)ethyl)-N—((S)-piperidin-3-yl)-1-(pyrrolidine-1-carbonyl)piperidine-4-carboxamide] | 27.5 nM
O=C(CN(C(=O)N1CCCC1)[C@H]1CCCNC1)Nc1ccc2c(c1)C[C@@]1(C2)C(=O)Nc2ncccc21 [Example 22, N-(2-Oxo-2-(((R)-2′-oxo-1,1′,2′,3-tetrahydrospiro[indene-2,3′-pyrrolo [2,3-b]pyridin]-5-yl)amino)ethyl)-N—((S)-piperidin-3-yl)pyrrolidine-1-carboxamide] | 245 nM
CC(=O)N1CCN(C(=O)N(CC(=O)Nc2ccc3c(c2)C[C@@]2(C3)C(=O)Nc3ncccc32)[C@H]2CCCNC2)CC1 [Example 23, 4-Acetyl-N-(2-oxo-2-(((R)-2′-oxo-1,1′,2′,3-tetrahydrospiro[indene-2,3′-pyrrolo[2,3-b]pyridin]-5-yl)amino)ethyl)-N—((S)-piperidin-3-yl)piperazine-1-carboxamide] | 2880 nM
CC(C)(C)C(=O)N(CC(=O)Nc1ccc2c(c1)CC1(C2)C(=O)Nc2ncccc21)[C@H]1CCNC1 (stereo partly drawn) [Example 24, N-(2-Oxo-2-((2′-oxo-1,1′,2′,3-tetrahydrospiro[indene-2,3′-pyrrolo[2,3-b]pyridin]-5-yl)amino)ethyl)-N—((S)-pyrrolidin-3-yl)pivalamide] | 132 nM
CC(C)(C)C(=O)N(CC(=O)Nc1ccc2c(c1)CC1(C2)C(=O)Nc2ncccc21)C1CCCCNC1 (centres unmarked) [Example 25, N-(Azepan-3-yl)-N-(2-oxo-2-((2′-oxo-1,1′,2′,3-tetrahydrospiro[indene-2,3′-pyrrolo[2,3-b]pyridin]-5-yl)amino)ethyl)pivalamide] | 129 nM
CC(C)(C)C(=O)N(CC(=O)Nc1ccc2c(c1)CC1(C2)C(=O)Nc2ncccc21)C1CCCNCC1 (centres unmarked) [Example 26, N-(Azepan-4-yl)-N-(2-oxo-2-((2′-oxo-1,1′,2′,3-tetrahydrospiro[indene-2,3′-pyrrolo[2,3-b]pyridin]-5-yl)amino)ethyl)pivalamide] | 479 nM
CC(C)(C)C(=O)N(CC(=O)Nc1ccc2c(c1)C[C@@]1(C2)C(=O)Nc2ncccc21)C1CC2CNC1C2 (stereo partly drawn) [Example 30, N-(2-Azabicyclo[2.2.1]heptan-6-yl)-N-(2-oxo-2-(((R)-2′-oxo-1,1′,2′,3-tetrahydrospiro[indene-2,3′-pyrrolo[2,3-b]pyridin]-5-yl)amino)ethyl)pivalamide] | 3020 nM
